Test system: D-PLDH
Assay: Relative enzyme activity of partially purified enzyme solution with different reaction substrates
Type: biochemical, Mycelia sterilia
Settings: partially purified enzyme solution (Mono Q10/10) from pDPLDH-1-carrying E. coli, compound used as reaction substrate
Description: A 150 μl portion of buffer solution A containing 250 μM NADPH and 250 μM phenylpyruvic acid was dispensed into wells of a 96-well microtiter plate, 50 μl each of the crude enzyme solution was added and mixed immediately using a pipette, and a change in absorption at 340 nm at 26° C. was measured. The measurement was carried out using an Absorption Microassay Reader BioLumin 960 (Molecular Dynamics) to trace a decrease in absorption with time after the start of the reaction. The amount of the enzyme which oxidized 1 μmol of NADPH per minute was set to be one unit. Results are shown in Table 1 as the enzyme activity of the crude enzyme solution.
Further, the obtained crude enzyme solution was processed using Mono Q10/10 under the conditions described in Example 1-2 to prepare a partially purified enzyme solution. This partially purified enzyme solution was applied onto a 96-well microtiter with different concentrations of the substrate, phenylpyruvic acid, to measure enzyme activity. Further, enzyme activity was also measured with an alternative substrate, pyruvic acid, in place of phenylpyruvic acid. […]

SMILES	Relative reaction rate (rate with phenylypyruvic acid = 100)
O=C(O)C(=O)Cc1ccccc1 [Phenylpyruvic acid, 2-oxo-3-phenylpropionic acid]	100
CC(=O)C(=O)O [Pyruvic acid]	10
